Reference: US8921307B2, “Synthetic linear apelin mimetics for the treatment of heart failure” (priority 2012, dated 2014)
Where a SMILES comes first, the peptide text is derived from it. [ ]: non-standard residue; d: D form. The star is where a group is joined. pGlu = O=C1CC[C@@H](C(=O)O)N1; dNle = CCCC[C@@H](N)C(=O)O; Aib = CC(C)(N)C(=O)O; tBu = CC(C)(C)*

Key:
[1] = Surrogate Activity-Based Plasma Stability Assay; assay type: in vitro ADME; conditions: rat, Surrogate activity-based Plasma stability t½
Procedure: Stability half-life was then calculated by the formula, t½=0.693÷k Surrogate Activity-Based Plasma Stability Assay: […]
2) Calculate slope of value above and […]

[2] = target: T1, hAPJ (Homo sapiens, UniProt P35414); test: hAPJ Calcium Flux Assay; assay type: cell-based; conditions: Chem-5 APJ stable cells, FLIPR calcium flux stimulation; read-out: hAPJ Ca^2+ Flux EC50
T1 sequence (P35414 1-380): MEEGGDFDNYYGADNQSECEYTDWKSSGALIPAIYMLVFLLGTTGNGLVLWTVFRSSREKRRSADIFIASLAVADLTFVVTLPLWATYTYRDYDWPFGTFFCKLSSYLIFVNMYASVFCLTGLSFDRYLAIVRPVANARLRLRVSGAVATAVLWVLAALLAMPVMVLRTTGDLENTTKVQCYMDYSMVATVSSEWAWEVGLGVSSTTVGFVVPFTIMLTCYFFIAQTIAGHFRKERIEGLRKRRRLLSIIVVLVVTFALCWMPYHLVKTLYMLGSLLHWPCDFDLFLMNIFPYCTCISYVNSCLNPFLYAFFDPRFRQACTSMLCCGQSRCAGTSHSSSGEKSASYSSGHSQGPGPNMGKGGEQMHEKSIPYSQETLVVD
Procedure: Chem-5 APJ stable cells (Millipore # HTS068C) were plated in 384-well format with 10,000 cells/well in 25 ul growth media, then grown 24 hours in a 37° C. tissue culture incubator. One hour before the assay, 25 ul/well FLIPR Calcium 4 dye (Molecular Devices R8142) with 2.5 mM probenecid was added, and cells were incubated one hour in a 37° C. tissue culture incubator. Peptides were solubilized in HBSS, HEPES & 0.1% BSA buffer, and serially-diluted 10-fold, from 50 uM to […], in triplicate. FLIPR Tetra was used to add peptide to the cells with dye (1:5, for final peptide concentrations ranging from 10 uM to […]). FLIPR dye inside the cells emitted fluorescence after binding to calcium, while fluorescence from outside the cells was masked. Fluorescence was measured using 470-495 excitation and 515-575 emission wavelengths on the FLIPR Tetra. Readings were done for 3 minutes total, beginning 10 seconds before the peptide addition. Maximum-minimum values were calculated and plotted for each peptide concentration, and GraphPad prism software was used to calculate EC50 values at the curve inflection points, for calcium flux stimulation by peptides.

Structure (SMILES) | half-life [1] | EC50 [2]
CCCC[C@@H](NC(=O)[C@@H]1CCCCN1C(=O)CNC(=O)[C@H](CCCCN)NC(=O)[C@H](Cc1c[nH]cn1)NC(=O)[C@@H](C)NC(=O)[C@H](CC(C)C)NC(=O)[C@H](CCCNC(=N)N)NC(=O)[C@@H]1CCCN1C(=O)[C@H](CCCNC(=N)N)NC(=O)[C@@H]1CCC(=O)N1)C(=O)N[C@H](C)C(=O)N[C@H](Cc1ccccc1)C(=O)O [Example 1, pE-R-P-R-L-a-H-K-G-Pip-nle-a-f-OH] | > 16.7 h | 2.3 nM
CCCC[C@@H](NC(=O)[C@@H]1CCCN1C(=O)CNC(=O)[C@H](CCCCN)NC(=O)[C@@H](C)NC(=O)[C@H](CO)NC(=O)[C@@H](CC(C)C)NC(=O)[C@H](CCCNC(=N)N)NC(=O)[C@@H]1CCCN1C(=O)[C@H](CCCNC(=N)N)NC(=O)[C@@H]1CCC(=O)N1)C(=O)N[C@H](C)C(=O)N[C@H](Cc1ccccc1)C(=O)O [Example 2, pE-R-P-R-(D-Leu)-S-a-K-G-P-nle-a-f-OH] ([pGlu]RPR[dL]S[dA]KGP[dNle][dA][dF]-OH) | > 16.7 h | 386 nM
CCCC[C@@H](NC(=O)[C@@H]1CCCN1C(=O)CNC(=O)[C@H](CCCCN)NC(=O)[C@H](Cc1c[nH]cn1)NC(=O)[C@@H](C)NC(=O)[C@H](CC(C)C)NC(=O)[C@H](CCCNC(=N)N)NC(=O)[C@@H]1CCCN1C(=O)[C@@H](CCCNC(=N)N)NC(=O)[C@@H]1CCC(=O)N1)C(=O)N[C@H](C)C(=O)N[C@H](Cc1ccccc1)C(=O)O [Example 3, pE-r-P-R-L-a-H-K-G-P-nle-a-f-OH] | > 16.7 h | 797 nM
CCCC[C@@H](NC(=O)[C@@H]1CCCN1C(=O)CNC(=O)[C@@H](CCCCN)NC(=O)C(C)(C)NC(=O)[C@H](CO)NC(=O)[C@H](CC(C)C)NC(=O)[C@H](CCCNC(=N)N)NC(=O)[C@@H]1CCCN1C(=O)[C@H](CCCNC(=N)N)NC(=O)[C@@H]1CCC(=O)N1)C(=O)N[C@H](C)C(=O)N[C@H](Cc1ccccc1)C(=O)O [Example 5, pE-R-P-R-L-S-Aib-k-G-P-nle-a-f-OH] ([pGlu]RPRLS[Aib][dK]GP[dNle][dA][dF]-OH) | > 16.7 h | 79.9 nM
CCCC[C@@H](NC(=O)[C@@H]1CCCN1C(=O)CNC(=O)[C@H](CCCCN)NC(=O)[C@H](Cc1c[nH]cn1)NC(=O)[C@@H](C)NC(=O)[C@H](CC(C)C)NC(=O)[C@H](CCCNC(=N)N)NC(=O)[C@@H]1CCCN1C(=O)[C@H](CCCNC(=N)N)NC(=O)[C@@H]1CCC(=O)N1)C(=O)N[C@H](Cc1ccccc1)C(=O)O [Example 6, pE-R-P-R-L-a-H-K-G-P-nle-f-OH] | > 16.7 h | 3.1 nM
CCCC[C@@H](NC(=O)[C@@H]1CCCN1C(=O)CNC(=O)[C@H](CCCCN)NC(=O)[C@H](Cc1c[nH]cn1)NC(=O)[C@@H](CSC(C)(C)C)NC(=O)[C@H](CC(C)C)NC(=O)[C@H](CCCNC(=N)N)NC(=O)[C@@H]1CCCN1C(=O)[C@H](CCCNC(=N)N)NC(=O)[C@@H]1CCC(=O)N1)C(=O)N[C@H](C)C(=O)N[C@H](Cc1ccccc1)C(=O)O [Example 7, pE-R-P-R-L-c(tBu)-H-K-G-P-nle-a-f-OH] ([pGlu]RPRL[dC](tBu)HKGP[dNle][dA][dF]-OH) | > 16.7 h | 693 nM
CCCC[C@@H](NC(=O)[C@@H]1CCCN1C(=O)CNC(=O)[C@H](CCCCN)NC(=O)[C@H](Cc1c[nH]cn1)NC(=O)[C@@H](CC(=O)O)NC(=O)[C@H](CC(C)C)NC(=O)[C@H](CCCNC(=N)N)NC(=O)[C@@H]1CCCN1C(=O)[C@H](CCCNC(=N)N)NC(=O)[C@@H]1CCC(=O)N1)C(=O)N[C@H](C)C(=O)N[C@H](Cc1ccccc1)C(=O)O [Example 8, pE-R-P-R-L-d-H-K-G-P-nle-a-f-OH] ([pGlu]RPRL[dD]HKGP[dNle][dA][dF]-OH) | > 16.7 h | 7.7 nM
CCCC[C@@H](NC(=O)[C@@H]1CCCN1C(=O)CNC(=O)[C@H](CCCCN)NC(=O)[C@H](Cc1c[nH]cn1)NC(=O)[C@@H](C)NC(=O)[C@H](CC(C)C)NC(=O)[C@H](CCCNC(=N)N)NC(=O)[C@@H]1C[C@@H](c2ccccc2)CN1C(=O)[C@H](CCCNC(=N)N)NC(=O)[C@@H]1CCC(=O)N1)C(=O)N[C@H](C)C(=O)N[C@H](Cc1ccccc1)C(=O)O [Example 9, pE-R-(trans-4-PhP)-R-L-a-H-K-G-P-nle-a-f-OH] | > 16.7 h | 9.9 nM
CCCC[C@@H](NC(=O)[C@@H]1CCCN1C(=O)CNC(=O)[C@H](CCCCN)NC(=O)[C@H](Cc1c[nH]cn1)NC(=O)[C@@H](CC(C)C)NC(=O)[C@H](CC(C)C)NC(=O)[C@H](CCCNC(=N)N)NC(=O)[C@@H]1CCCN1C(=O)[C@H](CCCNC(=N)N)NC(=O)[C@@H]1CCC(=O)N1)C(=O)N[C@H](C)C(=O)N[C@H](Cc1ccccc1)C(=O)O [Example 10, pE-R-P-R-L-(D-Leu)-H-K-G-P-nle-a-f-OH] ([pGlu]RPRL[dL]HKGP[dNle][dA][dF]-OH) | > 16.7 h | 155 nM
CCCC[C@@H](NC(=O)[C@@H]1CCCN1C(=O)CNC(=O)[C@H](CCCCN)NC(=O)[C@H](Cc1c[nH]cn1)NC(=O)[C@@H](CCCCN)NC(=O)[C@H](CC(C)C)NC(=O)[C@H](CCCNC(=N)N)NC(=O)[C@@H]1CCCN1C(=O)[C@H](CCCNC(=N)N)NC(=O)[C@@H]1CCC(=O)N1)C(=O)N[C@H](C)C(=O)N[C@H](Cc1ccccc1)C(=O)O [Example 11, pE-R-P-R-L-k-H-K-G-P-nle-a-f-OH] ([pGlu]RPRL[dK]HKGP[dNle][dA][dF]-OH) | > 16.7 h | 1060 nM
CCCC[C@@H](NC(=O)[C@@H]1CCCN1C(=O)CNC(=O)[C@H](CCCCN)NC(=O)[C@H](Cc1c[nH]cn1)NC(=O)[C@@H](CO)NC(=O)[C@H](CC(C)C)NC(=O)[C@H](CCCNC(=N)N)NC(=O)[C@@H]1CCCN1C(=O)[C@H](CCCNC(=N)N)NC(=O)[C@@H]1CCC(=O)N1)C(=O)N[C@H](C)C(=O)N[C@H](Cc1ccccc1)C(=O)O [Example 12, pE-R-P-R-L-s-H-K-G-P-nle-a-f-OH] ([pGlu]RPRL[dS]HKGP[dNle][dA][dF]-OH) | > 16.7 h | 0.9 nM
CCCC[C@@H](NC(=O)[C@@H]1CCCN1C(=O)CNC(=O)[C@H](CCCCN)NC(=O)[C@H](Cc1c[nH]cn1)NC(=O)[C@@H](C)NC(=O)[C@H](CC(C)C)NC(=O)[C@H](CCCNC(=N)N)NC(=O)[C@@H]1CCCN1C(=O)[C@H](CCCNC(=N)N)NC(=O)[C@@H]1CCC(=O)N1)C(=O)N1CCC[C@@H]1C(=O)N[C@H](Cc1ccccc1)C(=O)O [Example 13, pE-R-P-R-L-a-H-K-G-P-nle-p-f-OH] ([pGlu]RPRL[dA]HKGP[dNle][dP][dF]-OH) | > 16.7 h | 1.1 nM
CCCC[C@@H](NC(=O)[C@@H]1CCCN1C(=O)CNC(=O)[C@H](CCCCN)NC(=O)C(C)(C)NC(=O)[C@@H](C)NC(=O)[C@H](CC(C)C)NC(=O)[C@H](CCCNC(=N)N)NC(=O)[C@@H]1CCCN1C(=O)[C@H](CCCNC(=N)N)NC(=O)[C@@H]1CCC(=O)N1)C(=O)N[C@H](C)C(=O)N[C@H](Cc1ccccc1)C(=O)O [Example 15, pE-R-P-R-L-a-Aib-K-G-P-nle-a-f-OH] ([pGlu]RPRL[dA][Aib]KGP[dNle][dA][dF]-OH) | > 16.7 h | 2.1 nM
CCCC[C@@H](NC(=O)[C@@H]1CCCN1C(=O)CNC(=O)[C@H](CCCCN)NC(=O)[C@H](Cc1c[nH]cn1)NC(=O)[C@@H](C)NC(=O)[C@H](CC(C)C)NC(=O)[C@H](CCCNC(=N)N)NC(=O)[C@@H]1CCCN1C(=O)[C@H](CCCNC(=N)N)NC(=O)[C@@H]1CCC(=O)N1)C(=O)NCCc1ccccc1 [Example 32, pE-R-P-R-L-a-H-K-G-P-nle-NH(Phenethyl)] | 0.795 h | 
